Reference: ChEMBL document CHEMBL1201862, “PubChem BioAssay data set” (2004)
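Results reflect a 48-hour exposure of cells in 96-well plates to compound at five concentrations. GI50 = concentration required for 50% inhibition of growth.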 Activity calls are given as the source filed them. Rule as the data show it: active = GI50 up to about 1.1 µM and inactive = higher.

Experiments:
Test in all cases: NCI anticancer screen, dose series, 48 h
SF-539 = system: SF-539
SF-295 = system: SF-295
SK-MEL-2 = system: SK-MEL-2
EKVX = system: EKVX
T47D = system: T47D
CAKI-1 = system: CAKI-1
LOX IMVI = system: LOX IMVI
SNB-75 = system: SNB-75
MDA-MB-231 = system: MDA-MB-231
NCI-H460 = system: NCI-H460
COLO 205 = system: COLO 205
TK-10 = system: TK-10
PC-3 = system: PC-3
NCI-H226 = system: NCI-H226
HCT-116 = system: HCT-116
DU-145 = system: DU-145
MOLT-4 = system: MOLT-4
A498 = system: A498

Measured: GI50

CCC(=O)OCc1ccc2oc(=O)c(C(=O)Oc3cncc(Cl)c3)cc2c1
inactive: SF-539 > 100 µM | SF-295 > 100 µM | SK-MEL-2 > 100 µM | EKVX > 100 µM | T47D 98.6 µM | CAKI-1 > 100 µM | LOX IMVI > 100 µM | SNB-75 79.8 µM | MDA-MB-231 > 100 µM | NCI-H460 > 100 µM | COLO 205 71.6 µM | TK-10 97.5 µM | PC-3 46 µM | NCI-H226 > 100 µM | HCT-116 80 µM | DU-145 > 100 µM | MOLT-4 30 µM

COc1ccc(/N=C2\C(=N/c3ccc(OC)cc3)N(S(=O)(=O)c3ccccc3)C(=S)N2c2ccc(OC)cc2)cc1
inactive: SF-539 > 100 µM | SF-295 > 100 µM | SK-MEL-2 > 100 µM | EKVX > 100 µM | T47D > 100 µM | CAKI-1 > 100 µM | SNB-75 4.88 µM | MDA-MB-231 27.2 µM | COLO 205 > 100 µM | TK-10 > 100 µM | PC-3 > 100 µM | NCI-H226 > 100 µM | HCT-116 > 100 µM | DU-145 > 100 µM | MOLT-4 > 100 µM

COC(=O)/C=C1/N=C(N(C)/N=C/c2ccccc2)NC1=O
inactive: SF-539 > 100 µM | SF-295 > 100 µM | SK-MEL-2 > 100 µM | EKVX > 100 µM | T47D > 100 µM | CAKI-1 > 100 µM | LOX IMVI > 100 µM | SNB-75 > 100 µM | MDA-MB-231 > 100 µM | NCI-H460 > 100 µM | COLO 205 > 100 µM | TK-10 > 100 µM | PC-3 > 100 µM | HCT-116 > 100 µM | DU-145 > 100 µM | MOLT-4 > 100 µM

COc1ccc(C(=O)/C=C/c2ccc(OCCSCCCCCCCCCCSCCOc3ccc(/C=C/C(=O)c4ccc(OC)cc4)cc3)cc2)cc1
inactive: SF-539 > 100 µM | SF-295 > 100 µM | SK-MEL-2 > 100 µM | EKVX > 100 µM | T47D > 100 µM | CAKI-1 > 100 µM | SNB-75 > 100 µM | MDA-MB-231 > 100 µM | NCI-H460 > 100 µM | COLO 205 > 100 µM | TK-10 > 100 µM | PC-3 > 100 µM | NCI-H226 > 100 µM | HCT-116 > 100 µM | DU-145 > 100 µM | MOLT-4 > 100 µM

Cc1oc2c(cc(O)c3ccccc32)c2cccc1-2
inactive: SF-539 > 100 µM | SF-295 > 100 µM | EKVX > 100 µM | T47D > 100 µM | CAKI-1 > 100 µM | LOX IMVI > 100 µM | SNB-75 > 100 µM | MDA-MB-231 14.3 µM | A498 > 100 µM | NCI-H460 > 100 µM | COLO 205 > 100 µM | TK-10 > 100 µM | PC-3 > 100 µM | HCT-116 > 100 µM | DU-145 36.1 µM | MOLT-4 > 100 µM

C/C(=C\COP(=O)(O)OP(=O)(O)O)CCCOCc1ccccc1
inactive: SF-539 > 100 µM | SF-295 > 100 µM | SK-MEL-2 > 100 µM | EKVX > 100 µM | T47D > 100 µM | CAKI-1 > 100 µM | LOX IMVI > 100 µM | SNB-75 > 100 µM | MDA-MB-231 > 100 µM | NCI-H460 > 100 µM | COLO 205 > 100 µM | TK-10 > 100 µM | PC-3 > 100 µM | NCI-H226 > 100 µM | HCT-116 > 100 µM | DU-145 > 100 µM | MOLT-4 > 100 µM

COC(=O)[C@H](C)N1C(=O)N[C@@H](C(C)C)C1=O
inactive: SF-539 > 100 µM | SF-295 > 100 µM | SK-MEL-2 > 100 µM | EKVX > 100 µM | T47D > 100 µM | CAKI-1 > 100 µM | LOX IMVI > 100 µM | SNB-75 82 µM | MDA-MB-231 > 100 µM | NCI-H460 > 100 µM | COLO 205 > 100 µM | TK-10 > 100 µM | PC-3 > 100 µM | NCI-H226 > 100 µM | HCT-116 > 100 µM | DU-145 > 100 µM | MOLT-4 > 100 µM

CC1CCN(C(C)C)P(=S)(Cc2ccccc2)O1 (stereo unspecified)
inactive: SF-539 > 100 µM | SF-295 34 µM | SK-MEL-2 44.3 µM | EKVX 75.3 µM | T47D 11.2 µM | CAKI-1 > 100 µM | LOX IMVI > 100 µM | MDA-MB-231 > 100 µM | NCI-H460 > 100 µM | COLO 205 > 100 µM | TK-10 75 µM | PC-3 55 µM | NCI-H226 > 100 µM | HCT-116 59.6 µM | DU-145 > 100 µM | MOLT-4 > 100 µM

O=C1NC(N2CCOCC2)=N/C1=C\c1ccc(Cl)cc1
inactive: SF-539 > 100 µM | SF-295 > 100 µM | SK-MEL-2 > 100 µM | EKVX > 100 µM | T47D > 100 µM | CAKI-1 > 100 µM | LOX IMVI > 100 µM | SNB-75 60.8 µM | MDA-MB-231 > 100 µM | COLO 205 > 100 µM | TK-10 > 100 µM | PC-3 > 100 µM | NCI-H226 > 100 µM | HCT-116 > 100 µM | DU-145 > 100 µM | MOLT-4 > 100 µM
